Source: ChEMBL document CHEMBL5291721, “A preclinical secondary pharmacology resource illuminates target-adverse drug reaction associations of marketed drugs” (Nat Commun, 2023)
Several values for one entry are separate records, joined by “and”; a condition that tells them apart may be missing. Equal entries are not always repeated.

Experiments:
Adenosine receptor A2a = Adenosine receptor A2a (Homo sapiens, UniProt P29274)
[1] = biological target: T1, Neuropeptide Y receptor type 1 (Homo sapiens, UniProt P25929)
T1 sequence (P25929 whole entry): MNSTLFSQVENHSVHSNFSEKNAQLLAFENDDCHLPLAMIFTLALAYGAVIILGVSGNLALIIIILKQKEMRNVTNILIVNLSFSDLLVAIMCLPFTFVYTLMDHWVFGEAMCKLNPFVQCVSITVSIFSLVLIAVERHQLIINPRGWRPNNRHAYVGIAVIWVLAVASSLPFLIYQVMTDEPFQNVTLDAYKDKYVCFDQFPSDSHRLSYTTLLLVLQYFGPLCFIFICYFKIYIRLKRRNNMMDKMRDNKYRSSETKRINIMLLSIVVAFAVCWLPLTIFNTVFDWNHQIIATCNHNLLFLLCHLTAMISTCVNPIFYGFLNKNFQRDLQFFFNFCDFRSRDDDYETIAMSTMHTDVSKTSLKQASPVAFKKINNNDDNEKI

[2] = biological target: cGMP-inhibited 3',5'-cyclic phosphodiesterase 3A (Homo sapiens, UniProt Q14432); type: functional
[3] = biological target: Glutamate receptor ionotropic, NMDA 1 (Rattus norvegicus, UniProt P35439)
[4] = biological target: Beta-1 adrenergic receptor (Homo sapiens, UniProt P08588); type: functional
[5] = biological target: T2, Muscarinic acetylcholine receptor M2 (Homo sapiens, UniProt P08172); type: functional, cell-based
T2 sequence (P08172 whole entry): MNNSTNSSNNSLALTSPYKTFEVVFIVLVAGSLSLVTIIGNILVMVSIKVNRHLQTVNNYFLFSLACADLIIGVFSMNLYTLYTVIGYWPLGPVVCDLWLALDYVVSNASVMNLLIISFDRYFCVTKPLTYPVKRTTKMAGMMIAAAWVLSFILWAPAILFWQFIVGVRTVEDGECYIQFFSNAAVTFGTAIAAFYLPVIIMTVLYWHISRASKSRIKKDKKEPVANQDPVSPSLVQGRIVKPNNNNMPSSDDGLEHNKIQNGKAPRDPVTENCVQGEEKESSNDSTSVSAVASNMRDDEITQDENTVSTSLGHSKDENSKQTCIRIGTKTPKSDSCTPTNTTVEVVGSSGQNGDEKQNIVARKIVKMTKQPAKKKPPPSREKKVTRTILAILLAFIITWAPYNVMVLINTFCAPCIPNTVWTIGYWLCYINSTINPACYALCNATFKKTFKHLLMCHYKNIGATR

Motilin receptor = Motilin receptor (Homo sapiens, UniProt O43193)
[6] = biological target: 3',5'-cyclic-AMP phosphodiesterase 4D (Homo sapiens, UniProt Q08499); type: functional
[7] = biological target: T3, 5-hydroxytryptamine receptor 2C (Homo sapiens, UniProt P28335)
T3 sequence (P28335 whole entry): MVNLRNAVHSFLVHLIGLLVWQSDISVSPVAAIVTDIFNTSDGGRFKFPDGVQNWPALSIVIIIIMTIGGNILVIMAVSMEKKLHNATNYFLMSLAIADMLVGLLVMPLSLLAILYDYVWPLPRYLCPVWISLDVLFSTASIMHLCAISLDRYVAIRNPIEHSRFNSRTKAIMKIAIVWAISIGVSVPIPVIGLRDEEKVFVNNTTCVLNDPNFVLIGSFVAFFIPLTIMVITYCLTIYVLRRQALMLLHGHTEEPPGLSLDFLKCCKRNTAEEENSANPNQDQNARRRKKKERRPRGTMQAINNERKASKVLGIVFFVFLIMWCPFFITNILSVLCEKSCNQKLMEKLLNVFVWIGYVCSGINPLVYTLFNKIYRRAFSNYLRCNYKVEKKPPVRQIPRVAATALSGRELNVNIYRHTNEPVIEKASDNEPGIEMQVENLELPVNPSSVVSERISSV

Mu-type opioid receptor = Mu-type opioid receptor (Homo sapiens, UniProt P35372); test: biochemical; type: functional
[8] = biological target: Neuronal acetylcholine receptor subunit alpha-4 (Homo sapiens, UniProt P43681)
[9] = biological target: T4, Prostaglandin G/H synthase 1 (Rattus norvegicus, UniProt Q63921); type: functional
T4 sequence (Q63921 whole entry): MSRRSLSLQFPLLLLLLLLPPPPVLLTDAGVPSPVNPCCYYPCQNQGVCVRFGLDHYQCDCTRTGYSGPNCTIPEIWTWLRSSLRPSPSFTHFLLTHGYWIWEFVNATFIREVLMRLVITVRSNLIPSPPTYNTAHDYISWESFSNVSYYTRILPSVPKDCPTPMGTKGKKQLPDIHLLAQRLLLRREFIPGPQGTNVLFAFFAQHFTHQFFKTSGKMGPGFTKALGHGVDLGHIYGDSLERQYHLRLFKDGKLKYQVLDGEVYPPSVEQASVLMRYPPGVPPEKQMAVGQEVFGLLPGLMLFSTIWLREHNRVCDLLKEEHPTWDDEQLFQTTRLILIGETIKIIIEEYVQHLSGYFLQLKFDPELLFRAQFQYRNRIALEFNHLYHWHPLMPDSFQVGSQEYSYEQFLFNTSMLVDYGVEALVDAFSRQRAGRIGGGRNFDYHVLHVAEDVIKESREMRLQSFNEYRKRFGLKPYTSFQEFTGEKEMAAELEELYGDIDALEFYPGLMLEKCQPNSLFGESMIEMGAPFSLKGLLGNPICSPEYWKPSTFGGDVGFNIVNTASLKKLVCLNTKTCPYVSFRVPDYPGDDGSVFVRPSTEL

[10] = biological target: Sodium-dependent noradrenaline transporter (Homo sapiens, UniProt P23975)
Vasopressin V1a receptor = Vasopressin V1a receptor (Homo sapiens, UniProt P37288)
Histamine H1 receptor = Histamine H1 receptor (Homo sapiens, UniProt P35367)
[11] = biological target: Sodium-dependent serotonin transporter (Homo sapiens, UniProt P31645)
[12] = biological target: 5-hydroxytryptamine receptor 2A (Homo sapiens, UniProt P28223); type: functional, cell-based

Measured: AC50
Note: assay procedure not described here.

Histamine H1 receptor, sequence (P35367 whole entry): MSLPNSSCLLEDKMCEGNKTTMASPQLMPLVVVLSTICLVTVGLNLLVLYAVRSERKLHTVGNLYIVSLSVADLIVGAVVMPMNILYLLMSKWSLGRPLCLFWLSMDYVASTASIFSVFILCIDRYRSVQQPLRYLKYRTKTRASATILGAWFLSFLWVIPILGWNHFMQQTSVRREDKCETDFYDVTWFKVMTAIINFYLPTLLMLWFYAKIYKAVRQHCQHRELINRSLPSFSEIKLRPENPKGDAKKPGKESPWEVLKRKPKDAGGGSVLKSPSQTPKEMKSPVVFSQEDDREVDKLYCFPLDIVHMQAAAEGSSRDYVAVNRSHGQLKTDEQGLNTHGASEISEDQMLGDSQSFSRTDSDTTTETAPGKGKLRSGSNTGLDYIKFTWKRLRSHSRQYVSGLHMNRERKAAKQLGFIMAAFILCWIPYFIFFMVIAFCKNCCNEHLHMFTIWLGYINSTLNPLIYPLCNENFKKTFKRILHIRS
5-hydroxytryptamine receptor 2A, sequence (P28223 whole entry): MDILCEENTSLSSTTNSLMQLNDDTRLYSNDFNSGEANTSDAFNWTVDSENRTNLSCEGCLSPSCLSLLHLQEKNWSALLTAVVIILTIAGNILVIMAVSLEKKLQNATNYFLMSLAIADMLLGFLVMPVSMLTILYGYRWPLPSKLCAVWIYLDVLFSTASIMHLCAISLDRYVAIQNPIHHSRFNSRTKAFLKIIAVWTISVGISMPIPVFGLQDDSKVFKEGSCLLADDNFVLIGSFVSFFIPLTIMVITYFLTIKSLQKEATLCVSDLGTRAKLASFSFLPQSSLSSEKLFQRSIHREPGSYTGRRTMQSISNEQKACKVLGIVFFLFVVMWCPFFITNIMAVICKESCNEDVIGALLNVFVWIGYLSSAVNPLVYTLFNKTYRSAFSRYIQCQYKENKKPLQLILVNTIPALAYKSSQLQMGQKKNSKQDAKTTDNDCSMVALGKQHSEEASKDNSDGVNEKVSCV
Beta-1 adrenergic receptor, sequence (P08588 whole entry): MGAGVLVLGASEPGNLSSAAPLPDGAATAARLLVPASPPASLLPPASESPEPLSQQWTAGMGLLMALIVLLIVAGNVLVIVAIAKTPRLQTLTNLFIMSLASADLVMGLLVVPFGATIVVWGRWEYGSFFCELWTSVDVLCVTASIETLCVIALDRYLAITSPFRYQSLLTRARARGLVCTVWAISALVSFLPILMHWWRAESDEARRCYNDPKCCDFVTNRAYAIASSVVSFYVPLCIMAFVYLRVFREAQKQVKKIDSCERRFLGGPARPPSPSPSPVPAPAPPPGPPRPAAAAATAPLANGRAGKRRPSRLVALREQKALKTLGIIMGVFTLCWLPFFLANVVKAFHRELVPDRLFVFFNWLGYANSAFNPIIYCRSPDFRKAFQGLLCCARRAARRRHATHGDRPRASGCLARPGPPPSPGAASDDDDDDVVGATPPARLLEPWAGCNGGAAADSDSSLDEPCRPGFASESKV
Sodium-dependent serotonin transporter, sequence (P31645 whole entry): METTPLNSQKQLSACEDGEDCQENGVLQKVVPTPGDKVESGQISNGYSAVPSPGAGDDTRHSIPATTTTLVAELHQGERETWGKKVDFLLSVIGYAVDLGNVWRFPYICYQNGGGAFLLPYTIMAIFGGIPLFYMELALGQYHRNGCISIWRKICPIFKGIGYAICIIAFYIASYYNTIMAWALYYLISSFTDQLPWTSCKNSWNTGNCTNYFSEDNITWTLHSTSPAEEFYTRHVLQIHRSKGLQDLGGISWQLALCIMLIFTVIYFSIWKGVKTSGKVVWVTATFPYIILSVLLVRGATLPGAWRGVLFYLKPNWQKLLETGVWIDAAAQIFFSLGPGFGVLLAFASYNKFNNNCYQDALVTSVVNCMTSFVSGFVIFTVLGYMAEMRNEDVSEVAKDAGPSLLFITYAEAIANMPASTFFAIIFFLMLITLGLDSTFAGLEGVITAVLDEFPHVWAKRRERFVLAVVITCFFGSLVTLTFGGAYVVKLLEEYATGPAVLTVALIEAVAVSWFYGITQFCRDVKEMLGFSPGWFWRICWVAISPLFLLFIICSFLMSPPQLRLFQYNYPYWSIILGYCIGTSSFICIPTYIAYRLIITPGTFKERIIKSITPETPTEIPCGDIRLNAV
Sodium-dependent noradrenaline transporter, sequence (P23975 whole entry): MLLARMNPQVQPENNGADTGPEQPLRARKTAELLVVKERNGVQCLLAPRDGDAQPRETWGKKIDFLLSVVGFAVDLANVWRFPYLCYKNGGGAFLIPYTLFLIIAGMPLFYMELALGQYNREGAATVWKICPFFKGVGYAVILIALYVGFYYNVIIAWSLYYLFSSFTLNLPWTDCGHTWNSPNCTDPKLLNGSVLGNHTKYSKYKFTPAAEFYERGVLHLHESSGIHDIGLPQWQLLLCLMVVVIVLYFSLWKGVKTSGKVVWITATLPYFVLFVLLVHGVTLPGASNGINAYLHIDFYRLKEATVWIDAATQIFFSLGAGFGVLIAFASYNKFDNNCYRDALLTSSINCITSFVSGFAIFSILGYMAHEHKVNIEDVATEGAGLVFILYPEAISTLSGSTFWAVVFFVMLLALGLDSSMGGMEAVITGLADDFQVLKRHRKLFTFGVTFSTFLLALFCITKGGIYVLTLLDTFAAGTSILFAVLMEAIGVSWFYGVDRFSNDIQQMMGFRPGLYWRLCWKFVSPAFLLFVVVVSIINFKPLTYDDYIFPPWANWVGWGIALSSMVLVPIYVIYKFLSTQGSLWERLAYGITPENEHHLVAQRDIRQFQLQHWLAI
Motilin receptor, sequence (O43193 whole entry): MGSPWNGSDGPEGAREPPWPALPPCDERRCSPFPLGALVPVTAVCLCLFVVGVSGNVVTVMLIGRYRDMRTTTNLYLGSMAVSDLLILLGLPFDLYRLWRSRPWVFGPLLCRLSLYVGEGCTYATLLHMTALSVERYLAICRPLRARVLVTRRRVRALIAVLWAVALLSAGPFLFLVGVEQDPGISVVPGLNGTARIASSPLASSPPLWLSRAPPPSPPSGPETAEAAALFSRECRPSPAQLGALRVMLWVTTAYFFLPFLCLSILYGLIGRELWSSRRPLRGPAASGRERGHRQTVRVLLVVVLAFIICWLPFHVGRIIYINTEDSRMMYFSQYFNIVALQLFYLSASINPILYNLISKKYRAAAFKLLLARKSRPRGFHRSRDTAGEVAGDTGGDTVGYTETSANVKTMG
cGMP-inhibited 3',5'-cyclic phosphodiesterase 3A, sequence (Q14432 whole entry): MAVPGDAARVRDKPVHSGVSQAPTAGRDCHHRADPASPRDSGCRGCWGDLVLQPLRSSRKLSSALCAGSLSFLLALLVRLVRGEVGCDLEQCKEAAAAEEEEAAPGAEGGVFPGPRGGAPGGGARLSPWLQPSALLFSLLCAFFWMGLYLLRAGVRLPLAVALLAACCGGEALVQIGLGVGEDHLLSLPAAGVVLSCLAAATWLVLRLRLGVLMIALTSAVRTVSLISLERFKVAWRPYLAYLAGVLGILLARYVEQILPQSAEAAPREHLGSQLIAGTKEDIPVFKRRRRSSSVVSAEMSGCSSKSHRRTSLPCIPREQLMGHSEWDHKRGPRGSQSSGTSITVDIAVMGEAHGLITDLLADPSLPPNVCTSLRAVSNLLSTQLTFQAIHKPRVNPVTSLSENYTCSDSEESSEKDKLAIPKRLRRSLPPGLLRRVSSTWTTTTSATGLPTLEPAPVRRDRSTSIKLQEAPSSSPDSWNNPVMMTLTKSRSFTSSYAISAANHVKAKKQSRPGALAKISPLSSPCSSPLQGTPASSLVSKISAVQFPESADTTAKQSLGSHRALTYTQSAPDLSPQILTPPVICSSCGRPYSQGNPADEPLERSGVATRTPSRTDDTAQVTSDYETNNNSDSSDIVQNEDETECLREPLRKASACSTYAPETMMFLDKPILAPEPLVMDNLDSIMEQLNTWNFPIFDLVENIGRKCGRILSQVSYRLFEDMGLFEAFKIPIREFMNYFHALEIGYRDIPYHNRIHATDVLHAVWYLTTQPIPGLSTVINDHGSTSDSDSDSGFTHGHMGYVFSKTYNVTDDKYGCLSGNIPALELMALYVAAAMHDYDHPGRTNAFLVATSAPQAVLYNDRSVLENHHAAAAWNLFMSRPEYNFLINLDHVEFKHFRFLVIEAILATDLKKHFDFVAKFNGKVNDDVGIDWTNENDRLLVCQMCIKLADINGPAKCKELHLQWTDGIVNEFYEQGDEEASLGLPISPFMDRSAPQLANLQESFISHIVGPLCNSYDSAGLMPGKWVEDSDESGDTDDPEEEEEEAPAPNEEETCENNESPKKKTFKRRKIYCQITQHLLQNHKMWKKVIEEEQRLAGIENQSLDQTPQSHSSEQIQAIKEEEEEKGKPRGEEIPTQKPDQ
Vasopressin V1a receptor, sequence (P37288 whole entry): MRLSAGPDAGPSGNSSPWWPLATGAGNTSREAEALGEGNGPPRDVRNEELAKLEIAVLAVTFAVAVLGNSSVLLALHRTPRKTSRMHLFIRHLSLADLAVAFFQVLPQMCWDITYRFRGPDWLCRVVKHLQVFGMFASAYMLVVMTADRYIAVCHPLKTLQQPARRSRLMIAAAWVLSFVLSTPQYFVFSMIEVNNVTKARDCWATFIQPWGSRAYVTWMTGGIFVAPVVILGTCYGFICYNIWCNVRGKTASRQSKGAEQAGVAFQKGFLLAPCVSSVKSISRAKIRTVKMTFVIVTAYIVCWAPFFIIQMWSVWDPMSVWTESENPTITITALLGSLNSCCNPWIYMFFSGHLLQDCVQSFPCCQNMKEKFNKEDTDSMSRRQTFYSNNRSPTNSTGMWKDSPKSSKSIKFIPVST

C[C@](N)(Cc1ccc(O)c(O)c1)C(=O)O [METHYLDOPA]
> 30 µM: Adenosine receptor A2a | [2] | [6] | [7] | Mu-type opioid receptor | [9]
not listed: Vasopressin V1a receptor | Histamine H1 receptor | [11] | [12]
> 10 µM: all other assays above

CC1(C)O[C@@H]2C[C@H]3[C@@H]4CCC5=CC(=O)C=C[C@]5(C)[C@H]4[C@@H](O)C[C@]3(C)[C@]2(C(=O)CO)O1 [DESONIDE]
> 30 µM: [2] | [6] | [7]
not listed: Mu-type opioid receptor
> 10 µM: all other assays above

CC(C[N+](C)(C)C)OC(N)=O (centres undefined) [BETHANECHOL]
> 30 µM: [2] | [6] | [7]
3.9 µM: [5]
not listed: Mu-type opioid receptor
> 10 µM: all other assays above

Nc1nc(N)nc(-c2cc(Cl)ccc2Cl)n1 [IRSOGLADINE]
21.4 µM: [6]
not listed: [3] | [7] | Vasopressin V1a receptor | Histamine H1 receptor | [11] | [12]
> 30 µM: all other assays above

COc1ccc2c3c1O[C@H]1C(=O)CC[C@@]4(O)[C@@H](C2)N(C)CC[C@]314 [OXYCODONE]
not listed: Mu-type opioid receptor
> 30 µM: all other assays above

O=C(O)[C@H](CC(=O)N1C[C@H]2CCCC[C@H]2C1)Cc1ccccc1 [MITIGLINIDE]
> 30 µM: [2] | [6] | [7]
not listed: Mu-type opioid receptor
> 10 µM: all other assays above

CCCc1nc(C(C)(C)O)c(C(=O)OCc2oc(=O)oc2C)n1Cc1ccc(-c2ccccc2-c2nnn[nH]2)cc1 [OLMESARTAN MEDOXOMIL]
11 µM: [2]
> 30 µM: Vasopressin V1a receptor | [9] | [11] | [10] | [12]
3.9 µM: [6]
not listed: Mu-type opioid receptor
> 10 µM: all other assays above

O=C(O)C[C@H](O)C[C@H](O)/C=C/c1c(C2CC2)nc2ccccc2c1-c1ccc(F)cc1 [PITAVASTATIN]
> 10 µM: [1] | [3] | Vasopressin V1a receptor | Motilin receptor | [11]
0.93 µM and 0.67 µM: [6]
not listed: Mu-type opioid receptor
> 30 µM: all other assays above

C=CCC1(C(C)CC)C(=O)NC(=O)NC1=O (centres undefined) [TALBUTAL]
> 30 µM: [2] | [6] | [7]
not listed: Mu-type opioid receptor
> 10 µM: all other assays above

CN1C(=O)C(O)N=C(c2ccccc2)c2cc(Cl)ccc21 (centres undefined) [TEMAZEPAM]
3 µM: [2]
> 30 µM: Adenosine receptor A2a | [1] | [6] | [7] | [9] | [12]
not listed: Mu-type opioid receptor
> 10 µM: all other assays above

CCCC(=O)O[C@]1(C(=O)CO)CC[C@H]2[C@@H]3CCC4=CC(=O)CC[C@]4(C)[C@H]3[C@@H](O)C[C@@]21C [HYDROCORTISONE BUTYRATE]
> 30 µM: [2] | [6] | [7]
not listed: Mu-type opioid receptor
> 10 µM: all other assays above

CN1CCC(=C2c3ccccc3CCc3sccc32)CC1 [PIZOTYLINE]
8.88 µM: [11]
0.017 µM: [7]
1.1 µM: [10]
> 10 µM: [3] | [4] | Motilin receptor | [6] | [8]
0.0047 µM: Histamine H1 receptor
not listed: Mu-type opioid receptor
> 30 µM: all other assays above
